Results published in publication PMC12391391, “The balance between B55α and Greatwall expression levels predicts sensitivity to Greatwall inhibition in cancer cells” (Nature Communications, 2025).

Experiments:
[1] = target: T1, Greatwall kinase (GWL, MASTL) (Homo sapiens, UniProt Q96GX5, K72M); assay: HTRF kinase assay with purified full-length GWL (K72M) and ENSA; type: biochemical
T1 construct: full-length
T1 sequence (Q96GX5 1-879 K72M): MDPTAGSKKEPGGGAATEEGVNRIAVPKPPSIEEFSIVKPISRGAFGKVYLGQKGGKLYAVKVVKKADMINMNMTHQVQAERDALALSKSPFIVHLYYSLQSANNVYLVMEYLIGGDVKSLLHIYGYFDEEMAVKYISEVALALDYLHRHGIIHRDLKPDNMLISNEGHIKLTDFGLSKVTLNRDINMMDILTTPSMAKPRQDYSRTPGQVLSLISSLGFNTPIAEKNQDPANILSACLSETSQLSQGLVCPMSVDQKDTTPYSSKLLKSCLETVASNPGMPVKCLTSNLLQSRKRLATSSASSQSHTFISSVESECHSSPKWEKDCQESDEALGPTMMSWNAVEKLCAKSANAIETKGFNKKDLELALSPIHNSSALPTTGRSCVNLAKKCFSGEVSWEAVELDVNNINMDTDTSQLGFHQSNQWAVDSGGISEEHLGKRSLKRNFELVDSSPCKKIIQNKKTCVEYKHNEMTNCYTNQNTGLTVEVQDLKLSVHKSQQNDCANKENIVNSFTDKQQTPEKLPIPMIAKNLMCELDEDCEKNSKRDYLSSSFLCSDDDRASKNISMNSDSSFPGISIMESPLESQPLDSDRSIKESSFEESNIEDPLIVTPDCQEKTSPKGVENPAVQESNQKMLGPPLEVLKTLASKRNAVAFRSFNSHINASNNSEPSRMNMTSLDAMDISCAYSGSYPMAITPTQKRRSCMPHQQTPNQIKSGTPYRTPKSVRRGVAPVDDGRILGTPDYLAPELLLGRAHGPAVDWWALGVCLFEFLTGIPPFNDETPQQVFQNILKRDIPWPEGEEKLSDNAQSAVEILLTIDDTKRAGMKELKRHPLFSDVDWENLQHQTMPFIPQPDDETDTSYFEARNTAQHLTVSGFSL

in vitro = assay: in vitro; set-up: intrinsic clearance in human microsomes; details: liver microsomes; human liver microsomes; read-out: Cl (human)
Source text: We selected compound 1 as the lead exemplar of cluster 3 and leveraged it as a foundation for subsequent drug development (Fig. 1a). Structure-activity relationship studies and pharmacokinetic profiling produced several derivative molecules, of which compound 21 provided the best combination of outstanding inhibitory potential, low clearance in mouse microsomes and acceptable solubility (Fig. 1a–c and Supplementary Tables 1–4). […] This assessment was supported by structural modelling of the interaction between compound 21 and the active site of GWL (Fig. 1d). In further support of its GWL-targeting properties, compound 21 diminished the phosphorylation of the canonical GWL substrate ENSA(S67) in Xenopus laevis cytostatic factor (CSF) egg extract (Supplementary Fig. 2). Having satisfied the criteria of prospective GWL inhibitor, the racemic compound 21 was registered as UOS-00054604 and, for the remainder of the manuscript, is referred to as C-604.

CDK1/cyclinB = CDK1/cyclinB (Homo sapiens, UniProt P06493); assay: biochemical; set-up: CDK1/cyclin B and off-target kinase inhibition assay
Sequence of CDK1/cyclinB (P06493 whole entry): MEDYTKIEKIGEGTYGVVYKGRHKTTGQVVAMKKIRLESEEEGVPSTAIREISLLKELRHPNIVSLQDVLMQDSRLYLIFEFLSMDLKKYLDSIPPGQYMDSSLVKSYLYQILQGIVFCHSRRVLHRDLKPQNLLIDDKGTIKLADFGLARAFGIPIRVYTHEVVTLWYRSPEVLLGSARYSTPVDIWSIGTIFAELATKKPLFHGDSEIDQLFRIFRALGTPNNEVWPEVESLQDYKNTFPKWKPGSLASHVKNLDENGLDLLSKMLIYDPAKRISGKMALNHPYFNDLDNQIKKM
Sequence of CDK1/cyclinB (P14635 whole entry partner): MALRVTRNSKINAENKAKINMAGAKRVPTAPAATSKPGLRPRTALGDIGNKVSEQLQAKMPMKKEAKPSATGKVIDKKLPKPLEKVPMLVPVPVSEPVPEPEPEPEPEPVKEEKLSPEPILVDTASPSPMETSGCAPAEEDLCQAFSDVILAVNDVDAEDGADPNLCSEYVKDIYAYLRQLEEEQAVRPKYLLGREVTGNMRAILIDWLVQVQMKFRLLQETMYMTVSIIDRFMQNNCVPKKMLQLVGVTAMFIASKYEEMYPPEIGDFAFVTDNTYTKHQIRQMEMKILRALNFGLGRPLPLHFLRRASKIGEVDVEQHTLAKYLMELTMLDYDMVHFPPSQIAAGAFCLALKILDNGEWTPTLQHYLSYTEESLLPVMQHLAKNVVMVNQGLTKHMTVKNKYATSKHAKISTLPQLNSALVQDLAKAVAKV

CNC(=O)c1c[nH]c2ncc(-c3ccc(OCCN4CCC(c5ccccc5)C4)cc3)nc12 (racemic) [compound 21, C-604]
IC50 [1]: 9 ± 7.7 nM
microsomal CLint (in vitro): 13 µL/min/mg
IC50 (CDK1/cyclinB): > 30000 nM
